Measured values taken from article PMC11357638 (Molecules, 2024).
Numbering of substitutions follows the chain as printed. Values joined by “and” are separate entries in the source; they are usually repeats but may differ in a detail not shown here. Equal entries are not always repeated.

Columns and labels:
hTRPV3 F666A mutant = target: T1, hTRPV3 F666A mutant (Homo sapiens, UniProt Q8NET8, F666A); test: cell-based
T1 sequence (Q8NET8 1-790 F666A): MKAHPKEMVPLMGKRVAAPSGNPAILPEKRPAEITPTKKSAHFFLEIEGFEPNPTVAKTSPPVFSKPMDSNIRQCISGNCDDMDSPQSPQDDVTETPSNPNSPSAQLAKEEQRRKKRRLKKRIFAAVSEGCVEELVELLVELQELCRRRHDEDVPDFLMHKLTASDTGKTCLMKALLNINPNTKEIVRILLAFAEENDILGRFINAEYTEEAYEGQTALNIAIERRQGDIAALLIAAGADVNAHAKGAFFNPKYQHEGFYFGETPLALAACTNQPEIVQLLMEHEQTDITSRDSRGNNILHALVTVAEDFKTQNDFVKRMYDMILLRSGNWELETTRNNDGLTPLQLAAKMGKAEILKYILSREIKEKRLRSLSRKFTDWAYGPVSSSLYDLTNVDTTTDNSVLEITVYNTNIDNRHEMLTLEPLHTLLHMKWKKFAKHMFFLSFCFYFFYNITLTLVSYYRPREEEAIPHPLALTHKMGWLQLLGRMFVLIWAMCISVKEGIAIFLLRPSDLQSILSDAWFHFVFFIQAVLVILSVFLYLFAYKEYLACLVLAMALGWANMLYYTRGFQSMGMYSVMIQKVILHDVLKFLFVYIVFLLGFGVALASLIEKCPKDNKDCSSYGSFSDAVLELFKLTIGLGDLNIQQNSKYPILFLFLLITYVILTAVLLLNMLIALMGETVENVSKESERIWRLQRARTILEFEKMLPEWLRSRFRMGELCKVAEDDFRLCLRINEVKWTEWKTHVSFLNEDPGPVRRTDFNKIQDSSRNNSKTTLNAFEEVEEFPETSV

hTRPV3 T636A mutant = target: T2, hTRPV3 T636A mutant (Homo sapiens, UniProt Q8NET8, T636A); test: Whole-cell patch-clamp of hTRPV3 T636A mutant in HEK293T cells; format: cell-based
T2 construct: expressed in transfected cells; host or cells: HEK293T
T2 sequence (Q8NET8 1-790 T636A): T1 sequence (Q8NET8 1-790 F666A) with T636A, A666F

hTRPV3 single channel = target: T3, hTRPV3 single channel (Homo sapiens, UniProt Q8NET8); test: Inside-out single-channel recording of hTRPV3; format: cell-based; details: CA at 500 μM co-applied with 50 μM 2-APB, −60 mV
T3 construct: expressed in transfected cells; host or cells: HEK293T
T3 sequence (Q8NET8 1-790): T1 sequence (Q8NET8 1-790 F666A) with A666F

[1] = target: T4, human TRPV4 (hTRPV4) channels (Homo sapiens, UniProt Q9HBA0); test: Whole-cell patch-clamp selectivity, hTRPV4 in HEK293T cells; format: cell-based; details: HEK-293T; 1000 μM CA, current caused by 0.1 μM GSK1016790A, mean ± SD, n = 5
T4 construct: expressed in transfected cells; host or cells: HEK293T
T4 sequence (Q9HBA0 whole entry): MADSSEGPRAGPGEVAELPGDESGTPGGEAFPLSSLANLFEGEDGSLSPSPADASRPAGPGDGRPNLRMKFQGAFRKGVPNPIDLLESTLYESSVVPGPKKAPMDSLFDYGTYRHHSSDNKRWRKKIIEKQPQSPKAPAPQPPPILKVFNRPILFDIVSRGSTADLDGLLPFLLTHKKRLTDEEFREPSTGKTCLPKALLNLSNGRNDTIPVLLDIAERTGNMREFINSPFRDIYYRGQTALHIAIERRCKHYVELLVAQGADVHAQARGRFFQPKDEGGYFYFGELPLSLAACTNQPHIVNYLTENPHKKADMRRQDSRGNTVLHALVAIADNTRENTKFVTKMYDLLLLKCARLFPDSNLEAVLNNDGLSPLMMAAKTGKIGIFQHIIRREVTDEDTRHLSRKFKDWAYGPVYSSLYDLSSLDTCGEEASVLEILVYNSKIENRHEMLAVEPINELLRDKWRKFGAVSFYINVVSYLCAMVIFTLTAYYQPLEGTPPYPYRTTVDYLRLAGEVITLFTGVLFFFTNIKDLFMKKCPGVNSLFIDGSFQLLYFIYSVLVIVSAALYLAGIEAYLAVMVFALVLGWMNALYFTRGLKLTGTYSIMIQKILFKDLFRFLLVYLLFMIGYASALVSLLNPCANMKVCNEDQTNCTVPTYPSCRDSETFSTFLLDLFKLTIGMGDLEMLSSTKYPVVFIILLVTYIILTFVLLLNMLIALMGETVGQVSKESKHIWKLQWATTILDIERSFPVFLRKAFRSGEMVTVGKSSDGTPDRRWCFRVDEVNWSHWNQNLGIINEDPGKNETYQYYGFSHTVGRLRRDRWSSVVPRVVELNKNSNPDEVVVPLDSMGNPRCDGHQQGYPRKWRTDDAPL

Question: Which results are given for `O=C(O)/C=C/c1ccc(O)c(O)c1` [CA, caffeic acid]?
Answer: IC50 (hTRPV3 F666A mutant): 105 ± 4.8 µM; IC50 (hTRPV3 T636A mutant; T636A hTRPV3, 50 μM 2-APB, +80 mV, Hill fit, read-out: IC50, inhibition of T636A mutant outward currents): > 1000 µM and 1000 µM; channel current inhibition by 500 μM CA compared to WT (hTRPV3 T636A mutant; T636A mutant, 50 μM 2-APB, 500 μM CA): significantly diminished; open frequency (Freq) (hTRPV3 single channel): 15.96 ± 2.25 Hz; inhibition at 1000 µM [1]: ~4.6%
